Measurements taken from patent US12501917B2, “Methods and compositions for treating intestinal disorder” (MARS, INCORPORATED, priority 2019, dated 2025).

Tested on: canine fecal microbiome
Conditions: dog, in vivo

In the case of `Cc1ncc([N+](=O)[O-])n1CCO` [metronidazole], the “dysbiosis (community evenness, distance from healthy controls, potential pathogens)” value is reported as “exacerbated dysbiosis”.
